# ChEMBL document CHEMBL1201862, “PubChem BioAssay data set” (2004)
#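 Grown in 96-well plates, cells were treated for 48 hours with each compound at five concentrations. Insufficient inhibition: endpoint recorded as highest concentration tested. At the GI50, growth is halved.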 Calls of active or inactive are those of the source. No stated cut-off is given here; in the data, active = GI50 up to about 1.1 µM and inactive = higher.
# Experiments:
# Experiment in all cases: inhibition of tumour cell growth, NCI panel, 48 h
# [1] = system: A549
# [2] = system: ACHN
# [3] = system: CAKI-1
# [4] = system: CCRF-CEM
# [5] = system: COLO 205
# [6] = system: DLD-1
# [7] = system: DMS-114
# [8] = system: DMS-273
# [9] = system: EKVX
# [10] = system: HCC 2998
# [11] = system: HCT-116
# [12] = system: HCT-15
# [13] = system: HL-60
# [14] = system: HOP-18
# [15] = system: HOP-62
# [16] = system: HT-29
# [17] = system: IGROV-1
# [18] = system: K562
# [19] = system: KM-20L2
# [20] = system: KM12
# [21] = system: LOX IMVI
# [22] = system: LXFL 529
# [23] = system: M14
# [24] = system: M19-MEL
# [25] = system: MOLT-4
# [26] = system: Malme-3M
# [27] = system: NCI-H226
# [28] = system: NCI-H23
# [29] = system: NCI-H460
# [30] = system: NCI-H522
# [31] = system: OVCAR-3
# [32] = system: OVCAR-4
# [33] = system: OVCAR-5
# [34] = system: OVCAR-8
# [35] = system: RPMI-8226
# [36] = system: RXF 393
# [37] = system: SF-268
# [38] = system: SF-539
# [39] = system: SK-MEL-28
# [40] = system: SK-MEL-2
# [41] = system: SK-MEL-5
# [42] = system: SK-OV-3
# [43] = system: SN12C
# [44] = system: SNB-19
# [45] = system: SR
# [46] = system: SW-620
# [47] = system: TK-10
# [48] = system: U-251
# [49] = system: UACC-62
# [50] = system: UO-31
# [51] = system: XF498
# [52] = system: 786-0
# [53] = system: SNB-75
# [54] = system: SNB-78
# [55] = system: A498
# [56] = system: SF-295
# [57] = system: UACC-257
structure (smiles),measurement,setting,value
COc1c2c(c3ccccc3c1O)C1C=CC2C1 (configuration not stated),GI50,[1],19.2 µM (inactive)
same,GI50,[2],14.4 µM (inactive)
same,GI50,[3],17.1 µM (inactive)
same,GI50,[4],4.72 µM (inactive)
same,GI50,[5],16.1 µM (inactive)
same,GI50,[6],13.3 µM (inactive)
same,GI50,[7],4.95 µM (inactive)
same,GI50,[8],15.7 µM (inactive)
same,GI50,[9],18.8 µM (inactive)
same,GI50,[10],16.1 µM (inactive)
same,GI50,[11],4 µM (inactive)
same,GI50,[12],10 µM
same,GI50,[13],> 10 µM (inactive)
same,GI50,[14],15.1 µM (inactive)
same,GI50,[15],16.1 µM (inactive)
same,GI50,[16],19.7 µM (inactive)
same,GI50,[17],20.8 µM (inactive)
same,GI50,[18],3.85 µM (inactive)
same,GI50,[19],22.3 µM (inactive)
same,GI50,[20],17.6 µM (inactive)
same,GI50,[21],4.48 µM (inactive)
same,GI50,[22],3.82 µM (inactive)
same,GI50,[23],14.7 µM (inactive)
same,GI50,[24],2.32 µM (inactive)
same,GI50,[25],13.2 µM (inactive)
same,GI50,[26],6.3 µM (inactive)
same,GI50,[27],> 10 µM (inactive)
same,GI50,[28],14.6 µM (inactive)
same,GI50,[29],18.5 µM (inactive)
same,GI50,[30],14.9 µM (inactive)
same,GI50,[31],14.5 µM (inactive)
same,GI50,[32],15.4 µM (inactive)
same,GI50,[33],18.7 µM (inactive)
same,GI50,[34],13.7 µM (inactive)
same,GI50,[35],> 100 µM (inactive)
same,GI50,[36],15.5 µM (inactive)
same,GI50,[37],17.7 µM (inactive)
same,GI50,[38],14.6 µM (inactive)
same,GI50,[39],23.3 µM (inactive)
same,GI50,[40],17.3 µM (inactive)
same,GI50,[41],5.77 µM (inactive)
same,GI50,[42],> 10 µM (inactive)
same,GI50,[43],15.1 µM (inactive)
same,GI50,[44],> 10 µM (inactive)
same,GI50,[45],21 µM (inactive)
same,GI50,[46],14.2 µM (inactive)
same,GI50,[47],22.3 µM (inactive)
same,GI50,[48],11.7 µM (inactive)
same,GI50,[49],15.4 µM (inactive)
same,GI50,[50],5.35 µM (inactive)
same,GI50,[51],14.7 µM (inactive)
CC(=O)O[C@H]1CC2C=CC3C(CCC31)O2 (some centres not stated),GI50,[52],> 100 µM (inactive)
same,GI50,[1],> 100 µM (inactive)
same,GI50,[2],> 100 µM (inactive)
same,GI50,[3],> 100 µM (inactive)
same,GI50,[4],> 100 µM (inactive)
same,GI50,[5],> 100 µM (inactive)
same,GI50,[6],> 100 µM (inactive)
same,GI50,[7],> 100 µM (inactive)
same,GI50,[8],> 100 µM (inactive)
same,GI50,[9],> 100 µM (inactive)
same,GI50,[10],> 100 µM (inactive)
same,GI50,[12],> 100 µM
same,GI50,[13],80 µM (inactive)
same,GI50,[14],> 100 µM (inactive)
same,GI50,[15],> 100 µM (inactive)
same,GI50,[16],> 100 µM (inactive)
same,GI50,[17],> 100 µM (inactive)
same,GI50,[18],> 100 µM (inactive)
same,GI50,[19],> 100 µM (inactive)
same,GI50,[21],> 100 µM (inactive)
same,GI50,[22],> 100 µM (inactive)
same,GI50,[23],> 100 µM (inactive)
same,GI50,[24],> 100 µM (inactive)
same,GI50,[25],> 100 µM (inactive)
same,GI50,[26],> 100 µM (inactive)
same,GI50,[28],> 100 µM (inactive)
same,GI50,[29],> 100 µM (inactive)
same,GI50,[31],> 100 µM (inactive)
same,GI50,[32],> 100 µM (inactive)
same,GI50,[34],> 100 µM (inactive)
same,GI50,[36],> 100 µM (inactive)
same,GI50,[37],> 100 µM (inactive)
same,GI50,[39],> 100 µM (inactive)
same,GI50,[42],> 100 µM (inactive)
same,GI50,[43],> 100 µM (inactive)
same,GI50,[44],> 100 µM (inactive)
same,GI50,[53],> 100 µM (inactive)
same,GI50,[54],> 100 µM (inactive)
same,GI50,[46],> 100 µM (inactive)
same,GI50,[47],> 100 µM (inactive)
same,GI50,[48],> 100 µM (inactive)
same,GI50,[49],> 100 µM (inactive)
same,GI50,[50],> 100 µM (inactive)
same,GI50,[51],> 100 µM (inactive)
O=C1CCC2(c3ccc(F)cc3)Nc3cc(Cl)ccc3N12 (configuration not stated),GI50,[52],> 100 µM (inactive)
same,GI50,[55],> 100 µM (inactive)
same,GI50,[1],59.4 µM (inactive)
same,GI50,[2],54.6 µM (inactive)
same,GI50,[4],> 100 µM (inactive)
same,GI50,[5],> 100 µM (inactive)
same,GI50,[6],> 100 µM (inactive)
same,GI50,[7],38.8 µM (inactive)
same,GI50,[8],> 100 µM (inactive)
same,GI50,[9],> 100 µM (inactive)
same,GI50,[11],67.8 µM (inactive)
same,GI50,[12],> 100 µM
same,GI50,[13],63.4 µM (inactive)
same,GI50,[14],48.3 µM (inactive)
same,GI50,[15],> 100 µM (inactive)
same,GI50,[16],> 100 µM (inactive)
same,GI50,[17],> 100 µM (inactive)
same,GI50,[18],44.6 µM (inactive)
same,GI50,[19],> 100 µM (inactive)
same,GI50,[20],> 100 µM (inactive)
same,GI50,[21],> 100 µM (inactive)
same,GI50,[22],65.5 µM (inactive)
same,GI50,[23],> 100 µM (inactive)
same,GI50,[24],> 100 µM (inactive)
same,GI50,[25],37.2 µM (inactive)
same,GI50,[26],59.7 µM (inactive)
same,GI50,[27],38.5 µM (inactive)
same,GI50,[28],38.3 µM (inactive)
same,GI50,[30],48.6 µM (inactive)
same,GI50,[31],86.5 µM (inactive)
same,GI50,[32],48.6 µM (inactive)
same,GI50,[34],> 100 µM (inactive)
same,GI50,[35],76.7 µM (inactive)
same,GI50,[36],88.9 µM (inactive)
same,GI50,[37],> 100 µM (inactive)
same,GI50,[56],60.5 µM (inactive)
same,GI50,[38],> 100 µM (inactive)
same,GI50,[39],> 100 µM (inactive)
same,GI50,[40],> 100 µM (inactive)
same,GI50,[41],45.5 µM (inactive)
same,GI50,[42],> 100 µM (inactive)
same,GI50,[43],> 100 µM (inactive)
same,GI50,[44],> 100 µM (inactive)
same,GI50,[53],> 100 µM (inactive)
same,GI50,[54],> 100 µM (inactive)
same,GI50,[45],43.4 µM (inactive)
same,GI50,[46],> 100 µM (inactive)
same,GI50,[48],> 100 µM (inactive)
same,GI50,[57],90.4 µM (inactive)
same,GI50,[49],66.1 µM (inactive)
same,GI50,[50],94.2 µM (inactive)
same,GI50,[51],20.1 µM (inactive)
